ChEMBL document CHEMBL1275461, “Early bactericidal activity and pharmacokinetics of the diarylquinoline TMC207 in treatment of pulmonary tuberculosis” (Antimicrob Agents Chemother, 2008)
In brackets after ≈: the same amount, converted by molar mass. Activity calls are given as the source filed them. The rule behind the calls is not given here.

Assays:
[1] = test system: Mycobacterium tuberculosis; test: Antimicrobial activity against drug-resistant Mycobacterium tuberculosis; assay type: functional
[2] = test system: Mycobacterium tuberculosis; test: Bactericidal activity against Mycobacterium tuberculosis selected on 10 times compound MIC measured after 6 days; assay type: functional, organism-based
[3] = test system: Mycobacterium tuberculosis; test: Bactericidal activity against Mycobacterium tuberculosis selected on 100 times compound MIC measured after 6 days; assay type: functional, organism-based

For `COc1nc2ccc(Br)cc2cc1[C@@H](c1ccccc1)[C@@](O)(CCN(C)C)c1cccc2ccccc12` [BEDAQUILINE], the MIC [1] was 0.03 µg/mL (≈ 0.054 µM), the Activity [2] was “Active” and the Activity [3] was “Active”.
